Results as given in patent US20060134064A1, “Combined treatment with interferon-alpha and an epidermal growth factor receptor kinase inhibitor” (priority 2004, published 2006).
Read-outs that look alike come from different tables or passages of the source.

What was measured:
colorectal cancer = details: cited from earlier work
HER1/EGFR = assay: Cell-surface HER1/EGFR expression by immunofluorescent flow cytometry after IFNα treatment; assay type: cell-based, human; details: IFNα 100 IU/mL
Description: The cell-surface HER1/EGFR levels at 72 h and 96 h of culture, with or without IFN-α (50 or 100 IU/ml), were measured by immunofluorescent flow cytometry. Cells were seeded in 60×15 mm dishes (FALCON™, BD) and treated with 100 IU/mL of IFN-α. The treated and untreated cells were harvested at different time intervals using 0.02% EDTA in PBS, then washed twice with ice-cold PBS and counted. The mouse monoclonal antibody against the extracellular domain of human HER1/EGFR (Catlog No: MO886, DAKO) diluted 1 in 100 in PBS was added to the cells (1×10^6 cells in 100 μL volume), while an irrelevant IgG 2b was used as the isotype-matched antibody control. After 60 min on ice, cells were washed and incubated with 100 μL of fluorescein-isothiocyanate (FITC)-conjugated goat-anti-mouse IgG (Catlog No: 81-6511, ZYMED), 1 in 200 dilution in PBS, on ice for 30 min in the dark. The cells were then washed again twice and resuspended in 1% formaldehyde in PBS. Cell surface immunofluorescence was analysed on a FACSCalibur (BD) using CELLQuest software equipped with a 5 W argon ion laser tuned to 488 nm at 200 mW. Levels of protein expression were estimated as the geometric mean of fluorescence intensity (MFI) of anti-HER1/EGFR minus that of the isotype-matched antibody control. Ten thousand singlet and viable cells of the individual treated and control samples were measured. Duplicate experiments with triplicate samples were performed for all cells.
Cell-surface HER1/EGFR expression by untreated cell lines: All cell lines were measured first to obtain an untreated level of HER1/EGFR. Cells were harvested after 72 h of culture and measured by flow cytometry. The HER1/EGFR value was calculated as the geometric mean fluorescence intensity of anti-HER1/EGFR detection minus that of isotype control. SW620 cells were HER1/EGFR-negative. Other cell lines including DLD-1, HCT116, HT29, KM12SM, LIM2099, LIM2408, LOVO and SW480 all positively expressed HER1/EGFR.
The relationship between HER1/EGFR expression and IFNα treatment was assessed in all cell lines. Cells were all cultured with or without 100 IU/mL of IFNα (which mimics serum levels in humans given subcutaneous interferon (Robinson S. P., et al. (1990) Breast Cancer Res. Treat.; 5:95-101) for 72 and 96 h. The cell-surface HER1/EGFR expression at 72 h of culture from untreated and treated groups of individual cell lines detected using anti-HER1/EGFR antibody minus isotype control is shown in FIG. 1. IFNα treatment was associated with significant up-regulation of cell-surface HER1/EGFR expression in 7 of 8 HER1/EGFR-positive cell lines, including DLD-1 (HER1/EGFR level (mean plus/minus standard deviation of the mean) treated versus that untreated: 17.89+0.60/10.86+0.51, paired t test, p=0.005; 95% confidence interval of the difference: 4.88−9.16), HCT116 (22.75+0.79/7.80+0.22, p<0.001; 13.52−16.36), HT29 (11.12+0.20/8.58+0.24, p=0.004; 1.82−3.27), LIM2099 (22.19+0.56/12.82+0.52, p=0.001; 7.87−10.86), LIM2408 (22.93+0.53/10.77+0.21, p=0.001; 10.35−13.97), LOVO (14.77+0.34/8.12+0.25, p=0.003; 5.2−8.1), and SW480 (27.09+0.76/14.10+0.33, p=0.002; 10.66−15.32) cells. In contrast, HER1/EGFR expression levels were not increased in KM12SM cells after IFNα treatment. […] Consistently, at 96 h of culture the cell-surface HER1/EGFR expression from untreated and treated groups of individual cell lines followed the same trend. Since up-regulation of HER1/EGFR expression was sustained between 72 and 96 h, we thus chose 72 h for IFNα pretreatment and 96 h for combination treatment introduced below.

BL-17/0/X1 = assay: Crystal violet nuclear staining assay, bladder cancer cell line BL-17/0/X1; assay type: cell-based; details: 2.5 μg/ml erlotinib, 96 h
Text: (§1) It is known that 40-60% of bladder cancers over-express EGFR which provides an opportunity for targeted therapy.

BL-17/2 = assay: Crystal violet nuclear staining assay, bladder cancer cell line BL-17/2; assay type: cell-based; details: 2.5 μg/ml erlotinib, 96 h
Text: as §1

MGHU3 = assay: Crystal violet nuclear staining assay, bladder cancer cell line MGHU3; assay type: cell-based; details: 2.5 μg/ml erlotinib, 96 h
Text: as §1

HT1376 = assay: Crystal violet nuclear staining assay, bladder cancer cell line HT1376; assay type: cell-based; details: 2.5 μg/ml erlotinib, 96 h
Text: as §1

[1] = tested on: bladder cancer cell lines; details: 10 μg/ml erlotinib; 8 of 9 cell lines
Description: Three different experimental schedules were performed: Single drug exposure over a range of concentrations of erlotinib, combination with IFN-α, and pre-treatment with IFN-α followed by erlotinib combined with IFN-α.
Cells were grown in 24-well plates and the antiproliferative effect was measured by crystal violet nuclear staining assay.

Compound: O=c1[nH]cc(F)c(=O)[nH]1 [5-fluorouracil]
- response rates (colorectal cancer; single-agent treatment, advanced colorectal cancer): about 10%

Compound: IFNα
- HER1/EGFR level (geometric mean fluorescence intensity minus isotype control), treated (HER1/EGFR; DLD-1 cells, 72 h, mean plus/minus SD): 17.89 ± 0.60
- HER1/EGFR level (geometric mean fluorescence intensity minus isotype control), treated (HER1/EGFR; HCT116 cells, 72 h, mean plus/minus SD): 22.75 ± 0.79
- Induction of HER1/EGFR expression by IFNα treatment (HER1/EGFR; HER1/EGFR-negative SW620 cells, 72 h): unable to induce HER1/EGFR expression
- HER1/EGFR level (geometric mean fluorescence intensity minus isotype control), treated (HER1/EGFR; HT29 cells, 72 h, mean plus/minus SD): 11.12 ± 0.20
- HER1/EGFR expression levels after IFNα treatment (HER1/EGFR; KM12SM cells, 72 h): not increased
- HER1/EGFR level (geometric mean fluorescence intensity minus isotype control), treated (HER1/EGFR; LIM2099 cells, 72 h, mean plus/minus SD): 22.19 ± 0.56
- HER1/EGFR level (geometric mean fluorescence intensity minus isotype control), treated (HER1/EGFR; LIM2408 cells, 72 h, mean plus/minus SD): 22.93 ± 0.53
- HER1/EGFR level (geometric mean fluorescence intensity minus isotype control), treated (HER1/EGFR; LOVO cells, mean plus/minus SD (FIG. 1: LOVO measured at 24 h)): 14.77 ± 0.34
- HER1/EGFR level (geometric mean fluorescence intensity minus isotype control), treated (HER1/EGFR; SW480 cells, 72 h, mean plus/minus SD): 27.09 ± 0.76

Compound: O=C1[O][Pt]2([NH][C@@H]3CCCC[C@H]3[NH]2)[O]C1=O [oxaliplatin]
- response rates (colorectal cancer; combined with 5-FU and leucovorin, first-line treatment for colorectal cancer): 25-40%

Compound: C#Cc1cccc(Nc2ncnc3cc(OCCOC)c(OCCOC)cc23)c1 [erlotinib, [6,7-bis(2-methoxyethoxy)-4-quinazolin-4-yl]-(3-ethynylphenyl)amine]
- growth rate of control cells (BL-17/0/X1): < 60%
- growth rate of control cells (BL-17/2): < 60%
- growth rate of control cells (MGHU3): < 60%
- growth rate of control cells (HT1376): < 60%
- growth rate of control [1]: < 60%
